The results in this text go back to patent US7553862B2, “4-amino-1,5-substituted-1,5-dihydro-imidazol-2-ones” (Hoffmann-La Roche Inc., priority 2006, dated 2009).

The assay addresses T1, mGlyT-1b (Mus musculus, UniProt P28571).
T1 construct: host or cells: Flp-in-CHO
T1 sequence (P28571 1-651 isoform P28571-2): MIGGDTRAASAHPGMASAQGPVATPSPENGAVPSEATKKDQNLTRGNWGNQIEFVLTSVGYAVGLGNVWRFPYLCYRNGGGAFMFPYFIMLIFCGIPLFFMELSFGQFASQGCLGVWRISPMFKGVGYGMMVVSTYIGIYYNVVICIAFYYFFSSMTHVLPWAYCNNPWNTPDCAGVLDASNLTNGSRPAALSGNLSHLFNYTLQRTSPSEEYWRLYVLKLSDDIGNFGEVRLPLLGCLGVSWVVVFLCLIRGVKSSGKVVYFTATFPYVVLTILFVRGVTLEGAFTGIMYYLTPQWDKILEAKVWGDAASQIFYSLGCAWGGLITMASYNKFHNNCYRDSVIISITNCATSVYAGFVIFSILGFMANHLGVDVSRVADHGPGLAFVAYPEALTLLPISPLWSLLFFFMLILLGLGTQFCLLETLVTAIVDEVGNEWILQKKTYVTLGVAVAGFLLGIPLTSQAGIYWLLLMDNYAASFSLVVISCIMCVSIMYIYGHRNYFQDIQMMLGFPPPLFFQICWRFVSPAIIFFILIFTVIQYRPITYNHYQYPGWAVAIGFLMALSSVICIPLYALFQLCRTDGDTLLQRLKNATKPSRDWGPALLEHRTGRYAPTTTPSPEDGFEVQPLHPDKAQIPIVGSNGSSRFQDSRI
Nature of the assay: Glycine uptake inhibition assay (mGlyT-1b). It is filed as cell-based. The settings on record: [3H]-glycine uptake in Flp-in-CHO cells transfected with mGlyT-1b cDNA; read-out: IC50 (μM) at GlyT-1. On the procedure:
DMEM complete medium: Nutrient mixture F-12 (Gibco Life-technologies), fetal bovine serum (FBS) 5%, (Gibco life technologies), Penicillin/Streptomycin1% (Gibco life technologies), Hygromycin 0.6 mg/ml (Gibco life technologies), Glutamine 1 mM Gibco life technologies) Uptake buffer (UB): 150 mM NaCl, 10 mM Hepes-Tris, pH 7.4, 1 mM CaCl2, 2.5 mM KCl, 2.5 mM MgSO4, 10 mM (+) D-glucose.
Flp-in™-CHO (Invitrogen Cat n° R758-07) cells stably transfected with mGlyT1b cDNA.
Glycine Uptake Inhibition Assay (mGlyT-1b)
On day 1 mammalian cells, (Flp-in™-CHO), transfected with mGlyT-1b cDNA, were plated at the density of 40,000 cells/well in complete F-12 medium, without hygromycin in 96-well culture plates. On day 2, the medium was aspirated and the cells were washed twice with uptake buffer (UB). The cells were then incubated for 20 min at 22° C. with either (i) no potential competitor, (ii) 10 mM non-radioactive glycine, (iii) a concentration of a potential inhibitor. A range of concentrations of the potential inhibitor was used to generate data for calculating the concentration of inhibitor resulting in 50% of the effect (e.g. IC50, the concentration of the competitor inhibiting glycine uptake of 50%). A solution was then immediately added containing [^3H]-glycine 60 nM (11-16 Ci/mmol) and 25 μM non-radioactive glycine. The plates were incubated with gentle shaking and the reaction was stopped by aspiration of the mixture and washing (three times) with ice-cold UB. The cells were lysed with scintillation liquid, shaken 3 hours and the radioactivity in the cells was counted using a scintillation counter.

As usually defined, the IC50 is the midpoint of a concentration-inhibition curve. In the case of `CC(C)CCNC1=NC(=O)N(c2ccc(Cl)c(Cl)c2)C1c1ccccc1` (racemic) [Example 53, Rac-1-(3,4-dichloro-phenyl)-4-(3-methyl-butylamino)-5-phenyl-1,5-dihydroimidazol-2-one], the IC50 came out at 0.082 µM. Turning to `O=C1N=C(NCc2ccccc2)[C@@H](c2ccccc2)N1c1ccc(Cl)cc1` (single isomer, unassigned) [Example 50, (−)-4-Benzylamino-1-(4-chloro-phenyl)-5-phenyl-1,5-dihydro-imidazol-2-one], the IC50 stood at 0.062 µM.

For the compound `Cc1ccc(C2C(NCc3ccccc3)=NC(=O)N2c2ccc(Cl)c(Cl)c2)cc1` (racemic) [Example 24, (Rac)-4-benzylamino-1-(3,4-dichloro-phenyl)-5-p-tolyl-1,5-dihydro-imidazol-2-one], the IC50 is 0.04 µM. Turning to `O=C1N=C(NCC2CCCCC2)C(c2ccccc2)N1c1ccc(Cl)c(Cl)c1` (racemic) [Example 58, (Rac)-4-(cyclohexylmethyl-amino)-1-(3,4-dichloro-phenyl)-5-phenyl-1,5-dihydro-imidazol-2-one], the IC50 is 0.024 µM. For `Cc1ccc(C2C(NCc3ccccc3)=NC(=O)N2c2ccc(Cl)c(Cl)c2)cc1C` (racemic) [Example 25, Rac-4-benzylamino-1-(3,4-dichloro-phenyl)-5-(3,4-dimethyl-phenyl)-1,5-dihydro-imidazol-2-one], the IC50 stood at 0.057 µM. To `O=C1N=C(NCc2ccccc2)C(c2ccc(F)cc2)N1c1ccc(F)c(Cl)c1` (racemic) [Example 44, Rac-4-Benzylamino-1-(3-chloro-4-fluoro-phenyl)-5-(4-fluoro-phenyl)-1,5-dihydro-imidazol-2-one] belongs 0.058 µM; to `CCCCCCNC1=NC(=O)N(c2ccc(Cl)c(Cl)c2)C1c1ccccc1` (racemic) [Example 57, (Rac)-1-(3,4-dichloro-phenyl)-4-hexylamino-5-phenyl-1,5-dihydro-imidazol-2-one], 0.077 µM; to `O=C1N=C(NCc2ccccc2)C(c2ccccc2)N1c1ccc(Cl)c(Cl)c1` (racemic) [Example 13, Rac-4-benzylamino-1-(3,4-dichloro-phenyl)-5-phenyl-1,5-dihydro-imidazol-2-one], 0.076 µM.

Turning to `O=C1N=C(NCc2ccc(F)cc2)C(c2ccccc2)N1c1ccc(Cl)c(Cl)c1` (racemic) [Example 51, Rac-1-(3,4-dichloro-phenyl)-4-(4-fluorobenzylamino)-5-phenyl-1,5-dihydro-imidazol-2-one], the IC50 was determined as 0.007 µM.

For the compound `O=C1N=C(NCc2ccccc2)C(c2ccc(F)cc2)N1c1ccc(Cl)c(Cl)c1` (racemic) [Example 43, (Rac)-4-benzylamino-1-(3,4-dichloro-phenyl)-5-(4-fluoro-phenyl)-1,5-dihydro-imidazol-2-one], the IC50 is 0.03 µM. `O=C1N=C(NCc2ccccc2)C(c2ccc(Cl)cc2)N1c1ccc(Cl)c(Cl)c1` (racemic) [Example 28, (Rac)-4-benzylamino-5-(4-chloro-phenyl)-1-(3,4-dichloro-phenyl)-1,5-dihydro-imidazol-2-one]: the IC50 was determined as 0.035 µM. `O=C1N=C(NCc2ccccc2)C(c2ccccc2)N1c1ccc(Cl)cc1` (racemic) [Example 10, (Rac)-4-benzylamino-1-(4-chloro-phenyl)-5-phenyl-1,5-dihydro-imidazol-2-one]: the IC50 was 0.062 µM.
